Assays:
[1] = target: human Orexin type 1 receptors (Homo sapiens (Human), UniProt O43613); experiment: Scintillation Proximity Assay (SPA) binding assay, [3H]SB-674042 displacement, CHO-hOX1 membranes
Experimental: Scintillation Proximity Assay (SPA) Binding Assays CHO cells stably transfected with human Orexin type 1 receptors (CHO-hOX1) or HEK-293 cells transiently transfected with human Orexin type 2 receptors (HEK-hOX2) were collected after 16 h induction with 5 mM sodium butyrate. […] The binding was performed in a final volume of 200 μl. 100 μl of hOX1 or hOX2 beads-membranes suspension were added to 100 μl of [^3H]SB-674042 or [^3H]EMPA solutions (radioligand concentration 2 nM final in the assay), into the 96-well Isoplates containing the 2 μl/well of compounds to be tested. Nonspecific binding was measured in the presence of 1 μM Almorexant. Assay plates were then incubated at room temperature for 3 h before being counted in a Microbeta scintillation counter (PerkinElmer). Data were analysed by non-linear regression analysis using XLfit Software.

[2] = target: human Orexin type 2 receptors (Homo sapiens (Human), UniProt O43614); experiment: Scintillation Proximity Assay (SPA) binding assay, [3H]EMPA displacement, HEK-hOX2 membranes
human Orexin type 2 receptors, sequence (O43614 whole entry): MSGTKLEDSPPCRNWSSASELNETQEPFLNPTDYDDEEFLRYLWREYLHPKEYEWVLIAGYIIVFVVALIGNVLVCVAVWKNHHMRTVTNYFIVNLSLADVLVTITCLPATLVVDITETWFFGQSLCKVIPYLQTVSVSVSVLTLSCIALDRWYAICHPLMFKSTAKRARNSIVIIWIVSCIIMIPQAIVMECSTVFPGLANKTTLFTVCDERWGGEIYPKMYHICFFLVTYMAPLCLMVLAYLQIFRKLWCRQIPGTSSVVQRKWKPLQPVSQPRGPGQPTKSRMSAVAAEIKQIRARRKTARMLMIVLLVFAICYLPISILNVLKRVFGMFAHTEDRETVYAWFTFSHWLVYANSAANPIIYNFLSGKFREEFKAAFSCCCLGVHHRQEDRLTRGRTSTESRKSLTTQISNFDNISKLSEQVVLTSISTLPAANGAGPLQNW
Experimental: Scintillation Proximity Assay (SPA) Binding Assays
CHO cells stably transfected with human Orexin type 1 receptors (CHO-hOX1) or HEK-293 cells transiently transfected with human Orexin type 2 receptors (HEK-hOX2) were collected after 16 h induction with 5 mM sodium butyrate. The cell pellets were re-suspended, homogenized in 15 mM Tris/HCl pH=7.5, 1 mM EGTA, 0.3 mM EDTA, 2 mM MgCl2, protease inhibitors and centrifuged at 40,000 g (20 min, 4° C.). After re-suspension, homogenization and centrifugation as above, the final pellets were re-suspended in 75 mM Tris/HCl pH=7.5, 1 mM EGTA, 0.3 mM EDTA, 12.5 mM MgCl2, 250 mM Sucrose, protease inhibitors, divided into aliquots and frozen down at −80° C.
CHO-hOX1 cell membranes (6 μg ml^−1) or HEK-hOX2 membranes (8 μg ml^−1) were pre-coupled with 1.0 mg ml^−1 of Wheatgerm Agglutinin-coated Yttrium Silicate (YSi-WGA) SPA beads (Perkin Elmer) in buffer containing 25 mM HEPES pH=7.4, 1 mM CaCl2), 5 mM MgCl2, 0.01% (w/v) BSA, 0.02% (w/v) Pluronic F-127 by shaking at room temperature for 2.5-3 h.
The binding was performed in a final volume of 200 μl. 100 μl of hOX1 or hOX2 beads-membranes suspension were added to 100 μl of [^3H]SB-674042 or [^3H]EMPA solutions (radioligand concentration 2 nM final in the assay), into the 96-well Isoplates containing the 2 μl/well of compounds to be tested. Nonspecific binding was measured in the presence of 1 μM Almorexant. Assay plates were then incubated at room temperature for 3 h before being counted in a Microbeta scintillation counter (PerkinElmer).
Data were analysed by non-linear regression analysis using XLfit Software.

human Orexin type 1 receptors, sequence (O43613 whole entry): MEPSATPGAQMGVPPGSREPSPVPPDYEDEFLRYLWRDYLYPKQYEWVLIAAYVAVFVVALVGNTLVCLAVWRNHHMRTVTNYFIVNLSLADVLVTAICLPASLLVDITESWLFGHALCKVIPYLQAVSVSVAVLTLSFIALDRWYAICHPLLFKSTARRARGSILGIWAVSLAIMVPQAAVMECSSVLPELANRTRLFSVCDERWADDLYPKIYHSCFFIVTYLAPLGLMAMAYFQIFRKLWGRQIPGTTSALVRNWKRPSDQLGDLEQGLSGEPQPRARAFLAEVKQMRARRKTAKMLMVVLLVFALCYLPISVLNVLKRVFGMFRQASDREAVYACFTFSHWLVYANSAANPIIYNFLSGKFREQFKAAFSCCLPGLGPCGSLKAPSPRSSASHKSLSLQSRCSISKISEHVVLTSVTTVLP

SMILES	OX1 pKi (SPA binding) ([1]; Table 1, [3H]SB-674042 2 nM)	OX2 pKi (SPA binding) ([2]; Table 1, [3H]EMPA 2 nM)	OX1 pKi (SPA binding) ([1]; Table 2, [3H]SB-674042 2 nM)	OX2 pKi (SPA binding) ([2]; Table 2, [3H]EMPA 2 nM)	Ki ([2]; Table 2, [3H]EMPA 2 nM, read-out: OX2 pKi (SPA binding) (converted)) [µM]
Cc1nc(C(=O)N2C(CNc3cc4ccccc4cn3)CC3CC2C3)c(-c2ccccc2)s1 (centres unmarked) [Example 59, N-[[2-(2-methyl-5-phenyl-1,3-thiazole-4-carbonyl)-2-azabicyclo[3.1.1]heptan-3-yl]methyl}isoquinolin-3-amine]	8.1	7.46	–	–	–
Cc1ccc(-n2nccn2)c(C(=O)N2C3CC(C3)[C@@H](C)C2CNc2nc3cc(F)ccc3s2)n1 (mixture of isomers) [Example 157, cis-5-fluoro-N-({4-methyl-2-[6-methyl-3-(2H-1,2,3-triazol-2-yl)pyridine-2-carbonyl]-2-azabicyclo[3.1.1]heptan-3-yl}methyl)-1,3-benzothiazol-2-amine]	–	–	7.84	5.63	–
Cc1nc(C(=O)N2C(COc3ccc(F)cc3)CC3CC2C3)c(-c2ccc(F)cc2)s1 (centres unmarked) [Example 50]	7.66	6.52	–	–	–
C[C@@H]1C2CC(C2)N(C(=O)c2cc(F)ccc2-n2nccn2)C1CNc1cnc2cc(F)ccc2n1 (stereo in doubt) [Example 224, cis-6-fluoro-N-({2-[5-fluoro-2-(2H-1,2,3-triazol-2-yl)benzoyl]-4-methyl-2-azabicyclo[3.1.1]heptan-3-yl}methyl)quinoxalin-2-amine]	–	–	8.04	6.19	–
O=C(c1nc(C2CC2)sc1-c1ccccc1)N1C(COc2ccc(F)cc2)CC2CC1C2 (centres unmarked) [Example 53]	7.58	7.13	–	–	–
Cc1ccc(-n2nccn2)c(C(=O)N2C3CC(C3)[C@@H](C)C2CNc2cnc3ccccc3n2)n1 (mixture of isomers) [Example 158, cis-N-({4-methyl-2-[6-methyl-3-(2H-1,2,3-triazol-2-yl)pyridine-2-carbonyl]-2-azabicyclo[3.1.1]heptan-3-yl}methyl)quinoxalin-2-amine]	–	–	8.4	5.74	–
Cc1ccc(-c2ncccn2)c(C(=O)N2C3CC(C3)[C@H](C)C2COc2ccc(Cl)cn2)n1 (mixture of isomers) [Example 118, trans-3-{[(5-chloropyridin-2-yl)oxy]methyl}-4-methyl-2-[6-methyl-3-(pyrimidin-2-yl)pyridine-2-carbonyl]-2-azabicyclo[3.1.1]heptane]	–	–	7.39	5.75	–
Cc1ccc(-c2ncccn2)c(C(=O)N2C3CC(C3)[C@@H](C)C2CNc2cnc(C(F)(F)F)cn2)n1 (single isomer, unassigned) [Example 249, N-{[(3S,4R) or (3R,4S)-4-methyl-2-[6-methyl-3-(pyrimidin-2-yl)pyridine-2-carbonyl]-2-azabicyclo[3.1.1]heptan-3-yl]methyl}-5-(trifluoromethyl)pyrazin-2-amine]	–	–	5.12	–	> 31.6
Cc1ccc(-c2ncccn2)c(C(=O)N2C3CC(C3)[C@@H](C)C2CNc2cnc(C(F)(F)F)cn2)n1 (single isomer, unassigned) [Example 250, N-{[(3R,4S) or (3S,4R)-4-methyl-2-[6-methyl-3-(pyrimidin-2-yl)pyridine-2-carbonyl]-2-azabicyclo[3.1.1]heptan-3-yl]methyl}-5-(trifluoromethyl)pyrazin-2-amine]	–	–	7.9	4.85	–
C[C@@H]1C2CC(C2)N(C(=O)c2ccc(Cl)cc2-n2nccn2)C1CNc1cnc(C(F)(F)F)cn1 (mixture of isomers) [Example 246, cis-N-({2-[4-chloro-2-(2H-1,2,3-triazol-2-yl)benzoyl]-4-methyl-2-azabicyclo[3.1.1]heptan-3-yl}methyl)-5-(trifluoromethyl)pyrazin-2-amine]	–	–	7.57	5.61	–
Cc1ccc(-n2nccn2)c(C(=O)N2C3CC(C3)[C@H](C)C2COc2ccc(Cl)cc2)n1 (stereo partly drawn) [Example 112, trans-3-[(4-chlorophenoxy)methyl]-4-methyl-2-[6-methyl-3-(2H-1,2,3-triazol-2-yl)pyridine-2-carbonyl]-2-azabicyclo[3.1.1]heptane]	7.83	5.92	–	–	–
Cc1ccc(-n2nccn2)c(C(=O)N2C3CC(C3)[C@@H](C)C2CNc2nc3ccccc3s2)n1 (stereo partly drawn) [Example 178, cis-N-({4-methyl-2-[6-methyl-3-(2H-1,2,3-triazol-2-yl)pyridine-2-carbonyl]-2-azabicyclo[3.1.1]heptan-3-yl}methyl)-1,3-benzothiazol-2-amine]	–	–	8.52	5.63	–
Cc1nc(C(=O)N2C3CC(C3)[C@@H](C)C2COc2ccc(F)cc2)c(-n2nccn2)s1 (stereo partly drawn) [Example 140, cis-3-[(4-flurophenoxy)methyl]-4-methyl-2-[2-methyl-5-(2H-1,2,3-triazol-2-yl)-1,3-thiazole-4-carbonyl]-2-azabicyclo[3.1.1]heptane]	–	–	7.49	6.22	–
Cc1ccc(-n2nccn2)c(C(=O)N2C3CC(C3)[C@H](C)C2CNc2nc3ccccc3s2)n1 (stereo partly drawn) [Example 150, trans-N-({4-methyl-2-[6-methyl-3-(2H-1,2,3-triazol-2-yl)pyridine-2-carbonyl]-2-azabicyclo[3.1.1]heptan-3-yl}methyl)-1,3-benzothiazol-2-amine]	–	–	7.5	6.14	–
Cc1ccc(-n2nccn2)c(C(=O)N2C3CC(C3)[C@@H](C)C2CNc2cccc(C(F)(F)F)n2)n1 (mixture of isomers) [Example 197, cis-N-({4-methyl-2-[6-methyl-3-(2H-1,2,3-triazol-2-yl)pyridine-2-carbonyl]-2-azabicyclo[3.1.1]heptan-3-yl}methyl)-6-(trifluoromethyl)pyridin-2-amine]	–	–	6.99	5.76	–
Cc1nc(C(=O)N2C3CC(C3)[C@@H](C)C2COc2ccc(F)cc2)c(-n2cccn2)s1 (mixture of isomers) [Example 141, cis-3-[(4-fluorophenoxy)methyl]-4-methyl-2-[2-methyl-5-(1H-pyrazol-1-yl)-1,3-thiazole-4-carbonyl]-2-azabicyclo[3.1.1]heptane]	–	–	6.91	6.45	–
Cc1ccc(-n2nccn2)c(C(=O)N2C3CC(C3)[C@@H](C)C2CNc2ncc(C(F)(F)F)cn2)n1 (mixture of isomers) [Example 193, cis-N-({4-methyl-2-[6-methyl-3-(2H-1,2,3-triazol-2-yl)pyridine-2-carbonyl]-2-azabicyclo[3.1.1]heptan-3-yl}methyl)-5-(trifluoromethyl)pyrimidin-2-amine]	–	–	7.57	4.64	–
Cc1cnc(-c2ccc(C)nc2C(=O)N2C3CC(C3)[C@@H](C)C2COc2ccc(F)cc2)nc1 (mixture of isomers) [Example 138, cis-3-[(4-fluorophenoxy)methyl]-4-methyl-2-[6-methyl-3-(5-methylpyrimidin-2-yl)pyridine-2-carbonyl]-2-azabicyclo[3.1.1]heptane]	–	–	8.08	7.05	–
Cc1nc(C(=O)N2C(CNc3ccc4ccccc4n3)CC3CC2C3)c(-c2ccccc2)s1 (centres unmarked) [Example 60, N-{[2-(2-methyl-5-phenyl-1,3-thiazole-4-carbonyl)-2-azabicyclo[3.1.1]heptan-3-yl]methyl}quinolin-2-amine]	8.27	7.39	–	–	–
C[C@@H]1C2CC(C2)N(C(=O)c2cc(Cl)ccc2-n2nccn2)C1CNc1cnc2cc(F)ccc2n1 (mixture of isomers) [Example 207, cis-N-({2-[5-chloro-2-(2H-1,2,3-triazol-2-yl)benzoyl]-4-methyl-2-azabicyclo[3.1.1]heptan-3-yl}methyl)-6-fluoroquinoxalin-2-amine]	–	–	8.46	6.44	–
O=C(c1nc(Cl)sc1-c1ccccc1)N1C(COc2ccc(F)cc2)CC2CC1C2 (centres unmarked) [Example 51]	7.22	–	–	–	–

— patent publication US11660293B2, “Substituted 2-azabicyclo[3.1.1]heptane and 2-azabicyclo[3.2.1]octane derivatives as orexin receptor antagonists” (Chronos Therapeutics Limited, priority 2017, dated 2023)
